Test results published in US12144856B2 (priority 2019, dated 2024).

Legend:
influenza vaccine [1] = conditions: young adults; topical imiquimod vs sham aqueous cream; cited from earlier work
influenza vaccine [2] = conditions: older adults, cited from earlier work
[3] = test system: 2009 pandemic influenza A(H1N1) virus and avian influenza virus A(H7N9); conditions: cited from earlier work
influenza infection [4] = test: Post-infection antibody, hemagglutination and microneutralization titers of mice vaccinated with or without miltefosine (FIG. 3); assay type: in vivo; conditions: intraperitoneal miltefosine + vaccine vs vaccine only
Description: Circles indicate data from the miltefosine+vaccine treatment group; squares indicate data from the vaccine only treatment group; triangles indicate data from the miltefosine only treatment group; inverted triangles indicate data from a saline-treated control group.
In FIG. 3 circles indicate data from the miltefosine+vaccine treatment group, squares indicate data from the vaccine only treatment group, triangles indicate data from the miltefosine only treatment group, and inverted triangles indicate data from a saline-treated control group.

[5] = test system: split-virion seasonal influenza vaccine; test: Antibody titers after influenza vaccination with or without intraperitoneal miltefosine (FIG. 1); assay type: in vivo, mice
Description: FIG. 1: FIG. 1 depicts antibody titers measured 14 days after vaccination with or without miltefosine. A second dose of vaccine was provided on day 14. Circles indicate data from the miltefosine+vaccine treatment group; squares indicate data from the vaccine only treatment group; triangles indicate data from the miltefosine only treatment group; inverted triangles indicate data from a saline-treated control group.
Miltefosine is an FDA-approved anti-parasitic drug that is used in the treatment of Leishmaniasis. The immunomodulating effects of miltefosine include being an agonist of TLR4 and TLR9 (Das S, Rani M, Pandey K, Sahoo G C, Rabidas V N, Singh D, et al. Combination of paromomycin and miltefosine promotes TLR4-dependent induction of antileishmanial immune response in vitro. J Antimicrob Chemother 2012; 67:2373-8; Mukherjee A K, Gupta G, Adhikari A, Majumder S, Kar Mahapatra S, Bhattacharyya Majumdar S, et al. Miltefosine triggers a strong proinflammatory cytokine response during visceral leishmaniasis: role of TLR4 and TLR9. Int Immunopharmacol 2012; 12:565-72), enhancing IFN-γ receptor (Wadhone P, Maiti M, Agarwal R, Kamat V, Martin S, Saha B. Miltefosine promotes IFN-gamma-dominated anti-leishmanial immune response. J Immunol 2009; 182:7146-54), promoting IL12-dependent TH1 response (Wadhone P, Maiti M, Agarwal R, Kamat V, Martin S, Saha B. Miltefosine promotes IFN-gamma-dominated anti-leishmanial immune response. J Immunol 2009; 182:7146-54), and inhibiting PI3K-Akt pathway (Lucas A, Kim Y, Rivera-Pabon O, Chae S, Kim D H, Kim B. Targeting the PI3K/Akt cell survival pathway to induce cell death of HIV-1 infected macrophages with alkylphospholipid compounds. PLoS One 2010; 5). Topical formulation of miltefosine has been evaluated in the treatment of breast carcinoma (Clive S, Gardiner J, Leonard R C. Miltefosine as a topical treatment for cutaneous metastases in breast carcinoma. Cancer Chemother Pharmacol 1999; 44 Suppl:S29-30). […] It was also noted that both IgG1 and IgG2a responses were enhanced by the use of miltefosine in combination with intradermal vaccination.

influenza infection [6] = test: Survival of mice infected 3 or 7 days after a single influenza vaccination with or without miltefosine (FIGS. 2A, 2B); assay type: in vivo; conditions: intraperitoneal miltefosine adjuvant + vaccine vs vaccine without adjuvant; infected 3 or 7 days after vaccination
Method: FIGS. 2A and 2B: FIG. 2A depicts survival rates of infected mice that were vaccinated with or without miltefosine 3 days prior to infection. Data from treatment with 0.2 mg miltefosine+vaccine is represented by a combination a circle and a solid line. Data from treatment with 0.008 mg miltefosine+vaccine is represented by a combination of a rhombus and a dashed line. Data from treatment with 0.2 mg miltefosine only is represented by a dash/dot line. Data from treatment with vaccine only is represented by a combination of a square and a solid line. Data from treatment with a saline control is represented by a dotted line. FIG. 2B depicts survival rates of infected mice that were vaccinated with (circle/dashed line, rhombus/dashed line, or black) or without (square/solid line) miltefosine 7 days prior to infection. Data from treatment with 1 mg miltefosine+vaccine is represented by a combination a triangle and a solid line. Data from treatment with 0.2 mg miltefosine+vaccine is represented by a combination a circle and a solid line. Data from treatment with 0.008 mg miltefosine+vaccine is represented by a combination of a rhombus and a dashed line. Data from treatment with 0.2 mg miltefosine only is represented by a dash/dot line. Data from treatment with vaccine only is represented by a combination of a square and a solid line. […]

[7] = miltefosine + vaccine vs vaccine only, 14 days after vaccination

Compound `CCCCC/C=C\C/C=C\C/C=C\C/C=C\CCCC(=O)N[C@H](C)CO` [(R)-methanandamide] has a CC50 (in vitro) greater than 60 µM.

In the case of `CC(C)Cn1cnc2c(N)nc3ccccc3c21` [imiquimod], the “Antibody responses for homologous virus” value (influenza vaccine [1]) is given as “faster and more robust”, the Antibody response (influenza vaccine [2]; topical imiquimod vs sham aqueous cream before intradermal vaccine) is given as “more rapid and robust” and the “Rate of hospitalization and pneumonia” value (influenza vaccine [2]; topical imiquimod vs sham aqueous cream) is given as “significantly lower”. The “Death during lethal challenge” value ([3]; 2009 pandemic A(H1N1) and A(H7N9) lethal challenge) was “reduction” and the “Immunogenicity of the influenza vaccine” value ([3]; mouse model) was “accelerate and augment”.

In the case of `CCCCCCCCCCCCCCCCOP(=O)([O-])OCC[N+](C)(C)C` [miltefosine], the IgG1/IgG2 ratio (influenza infection [4]) is reported as “greater”, the HAI titer (influenza infection [4]; 4 days post-infection) is reported as “significantly higher” and the MN titer (influenza infection [4]; 4 days post-infection) is reported as “significantly higher”. For the same compound, the Hemagglutination titer [5, 7] was “improved”, the Microneutralization titer [5, 7] was “improved” and the IgG titer ([5]; miltefosine in combination with influenza vaccination vs vaccine only, two weeks post-immunization) was “significantly increased”. The “IgG1 and IgG2a responses” value ([5]; miltefosine in combination with vaccination) was “enhanced” and the Survival (influenza infection [6]) was “significantly improved”.
